Data reported in patent US7517884B2 (Kalypsys Inc., priority 1998, dated 2009).

Assays:
Type in all cases: cell-based, murine and human
Settings in all cases: GAL4-PPAR LBD chimera
[1] = biological target: T1, PPAR-alpha (UniProt Q07869); test: PPAR-alpha transactivation assay (GAL4 chimera, luciferase reporter) in CV-1 cells
T1 sequence (Q07869 1-468): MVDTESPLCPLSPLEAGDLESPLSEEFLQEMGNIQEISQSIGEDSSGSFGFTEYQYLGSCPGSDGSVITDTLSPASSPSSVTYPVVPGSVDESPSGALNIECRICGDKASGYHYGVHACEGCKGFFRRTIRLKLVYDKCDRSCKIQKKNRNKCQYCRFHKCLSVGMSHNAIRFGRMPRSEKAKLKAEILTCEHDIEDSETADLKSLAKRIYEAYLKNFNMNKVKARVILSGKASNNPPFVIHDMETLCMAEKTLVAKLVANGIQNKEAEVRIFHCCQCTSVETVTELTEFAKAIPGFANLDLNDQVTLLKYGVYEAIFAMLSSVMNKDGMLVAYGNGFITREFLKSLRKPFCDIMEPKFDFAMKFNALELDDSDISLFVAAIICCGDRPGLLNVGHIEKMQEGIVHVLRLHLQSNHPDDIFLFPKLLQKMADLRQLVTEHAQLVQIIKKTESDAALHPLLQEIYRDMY
From the text: (§1) Compounds may be screened for functional potency in transient transfection assays in CV-1 cells for their ability to activate the PPAR subtypes (transactivation assay). A previously established chimeric receptor system was utilized to allow comparison of the relative transcriptional activity of the receptor subtypes on the same synthetic response element and to prevent endogenous receptor activation from complicating the interpretation of results. See, for example, Lehmann, J. M.; Moore, L. B.; Smith-Oliver, T. A; Wilkinson, W. O.; Willson, T. M.; Kliewer, S. A., An antidiabetic thiazolidinedione is a high affinity ligand for peroxisome proliferator-activated receptor […], J. Biol. Chem., 1995, 270, 12953-6. The ligand binding domains for murine and human PPAR-alpha, PPAR-gamma, and PPAR-delta are each fused to the yeast transcription factor GAL4 DNA binding domain. CV-1 cells were transiently transfected with expression vectors for the respective PPAR chimera along with a reporter construct containing four or five copies of the GAL4 DNA binding site driving expression of luciferase. After 8-16 h, the cells are replated into multi-well assay plates and the media is exchanged to phenol-red free DME medium supplemented with 5% delipidated calf serum. 4 hours after replating, cells were treated with either compounds or 1% DMSO for 20-24 hours. Luciferase activity was then assayed with Britelite (Perkin Elmer) following the manufacturer's protocol and measured with either the Perkin Elmer Viewlux or Molecular Devices Acquest (see, for example, Kliewer, S. A., et. al. Cell 1995, 83, 813-819). Rosiglitazone is used as a positive control in the PPARγ assay. Wy-14643 and GW7647 are used as positive controls in the PPARα assay. GW501516 is used as the positive control in the PPARδ assay.
(§2) Compounds of Examples 1-141 were assayed to measure their biological activity with respect to their EC50 values for modulating PPAR-alpha, PPAR-gamma, and PPAR-delta as set forth in Table 1.

[2] = biological target: T2, PPAR-delta (UniProt Q03181); test: PPAR-delta transactivation assay (GAL4 chimera, luciferase reporter) in CV-1 cells
T2 sequence (Q03181 1-441): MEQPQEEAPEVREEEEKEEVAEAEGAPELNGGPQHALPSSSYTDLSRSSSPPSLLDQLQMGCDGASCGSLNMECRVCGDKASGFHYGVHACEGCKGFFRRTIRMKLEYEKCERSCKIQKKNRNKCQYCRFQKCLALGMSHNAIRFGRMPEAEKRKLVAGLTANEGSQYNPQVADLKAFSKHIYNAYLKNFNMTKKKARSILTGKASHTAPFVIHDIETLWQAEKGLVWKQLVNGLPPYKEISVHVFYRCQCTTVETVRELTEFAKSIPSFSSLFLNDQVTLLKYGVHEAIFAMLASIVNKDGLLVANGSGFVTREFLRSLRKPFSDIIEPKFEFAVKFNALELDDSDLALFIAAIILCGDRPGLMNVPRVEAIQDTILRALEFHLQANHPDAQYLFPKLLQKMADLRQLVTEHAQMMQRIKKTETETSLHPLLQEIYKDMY
From the text: as §1, §2

[3] = biological target: T3, PPAR-gamma (UniProt P37231); test: PPAR-gamma transactivation assay (GAL4 chimera, luciferase reporter) in CV-1 cells
T3 sequence (P37231 1-505): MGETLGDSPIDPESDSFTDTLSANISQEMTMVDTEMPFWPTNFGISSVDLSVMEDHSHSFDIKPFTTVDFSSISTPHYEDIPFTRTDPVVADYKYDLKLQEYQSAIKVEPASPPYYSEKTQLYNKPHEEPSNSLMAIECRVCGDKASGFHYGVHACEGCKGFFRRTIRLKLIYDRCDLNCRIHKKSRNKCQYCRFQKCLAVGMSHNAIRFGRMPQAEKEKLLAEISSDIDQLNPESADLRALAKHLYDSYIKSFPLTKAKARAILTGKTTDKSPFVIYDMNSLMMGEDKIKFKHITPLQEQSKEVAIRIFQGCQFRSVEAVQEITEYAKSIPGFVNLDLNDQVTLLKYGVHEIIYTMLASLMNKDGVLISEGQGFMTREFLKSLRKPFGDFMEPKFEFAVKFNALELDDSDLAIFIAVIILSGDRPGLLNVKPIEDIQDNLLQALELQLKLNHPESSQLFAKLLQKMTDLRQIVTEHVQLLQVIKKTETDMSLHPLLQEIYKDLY
From the text: as §1, §2

Structure (SMILES)	EC50 [1] [µM]	EC50 [2] [µM]	EC50 [3] [µM]
C[C@@H]1CN(c2ccc(Cl)cc2)C[C@H](C)N1S(=O)(=O)c1cccc2c1CC(C(=O)O)C2 (single isomer, unassigned) [Example 127, 4-(4-(4-chlorophenyl)-cis-2,6-dimethylpiperazin-1-ylsulfonyl)-2,3-dihydro-1H-indene-2-carboxylic acid]	> 100	< 5	> 100
O=C(O)C1CCc2ccc(S(=O)(=O)N3CCCN(c4ccc(C(F)(F)F)cn4)CC3)cc21 (stereo not drawn) [Example 67, 6-[4-(5-trifluoromethyl-pyridin-2-yl)-[1,4]diazepane-1-sulfonyl]-indan-1-carboxylic acid]	< 5	< 5	< 5
C[C@@H]1CN(c2ccc(OC(F)(F)F)cc2)C[C@H](C)N1S(=O)(=O)c1ccc2c(c1)CC(C(=O)O)C2 (stereo partly drawn) [Example 84, 5-[2,6-cis-dimethyl-4-(4-trifluoromethoxy-phenyl)-piperazine-1-sulfonyl]-indan-2-carboxylic acid]	> 100	5 to 100	5 to 100
C[C@@H]1CN(c2ccc(Cl)c(C(F)(F)F)c2)C[C@H](C)N1S(=O)(=O)c1cccc2c1CC(C(=O)O)C2 (stereo partly drawn) [Example 134]	> 100	< 5	> 100
C[C@@H]1CN(c2ccc(C(F)(F)F)c(Br)c2)C[C@H](C)N1S(=O)(=O)c1cccc2c1CC(C(=O)O)C2 (stereo partly drawn) [Example 122, 4-(4-(3-Bromo-4-(trifluoromethyl)phenyl)-cis-2,6-dimethylpiperazin-1-ylsulfonyl)-2,3-dihydro-1H-indene-2-carboxylic acid]	> 100	< 5	> 100
COc1cc2c(cc1S(=O)(=O)N1CCN(c3ccc(C(F)(F)F)cc3)CC1)CCC2CC(=O)O (stereo not drawn) [Example 29, {6-methoxy-5-[4-(4-trifluoromethyl-phenyl)-piperazine-1-sulfonyl]-indan-1-yl}-acetic acid]	5 to 100	5 to 100	5 to 100
C[C@H]1CN(S(=O)(=O)c2ccc3c(c2)C(C(=O)O)CC3)CCN1c1ccc(OC(F)(F)F)cc1 (stereo partly drawn) [Example 53, 6-[3-(S)-methyl-4-(4-trifluoromethoxy-phenyl)-piperazine-1-sulfonyl]-indan-1-carboxylic acid]	< 5	< 5	< 5
O=C(O)Cc1csc2ccc(S(=O)(=O)N3CCN(c4ccc(C(F)(F)F)cc4)CC3)cc12 [Example 41, {5-[4-(4-trifluoromethyl-phenyl)-piperazine-1-sulfonyl]-benzo[b]thiophen-3-yl}-acetic acid]	5 to 100	< 5	5 to 100
CCC1CN(c2ccc(OC(F)(F)F)cc2)CCN1S(=O)(=O)c1ccc2c(c1)C(C(=O)O)CC2 (stereo not drawn) [Example 57, 6-[2-ethyl-4-(4-trifluoromethoxy-phenyl)-piperazine-1-sulfonyl]-indan-1-carboxylic acid]	< 5	< 5	< 5
C[C@@H]1CN(c2ccc(OC(F)(F)F)cc2)C[C@H](C)N1S(=O)(=O)c1cccc2c1CC(C(=O)O)C2 (stereo partly drawn) [Example 79, 4-[cis-2,6-dimethyl-4-(4-trifluoromethoxy-phenyl)-piperazine-1-sulfonyl]-indan-2-carboxylic acid]	> 100	< 5	> 100
C[C@H]1CN(S(=O)(=O)c2ccc3c(c2)C(C(=O)O)CC3)CCN1c1ccc(Cl)c(Cl)c1 (stereo partly drawn) [Example 52, 6-[4-(3,4-dichloro-phenyl)-3-(S)-methyl-piperazine-1-sulfonyl]-indan-1-carboxylic acid]	< 5	< 5	< 5
O=C(O)CC1Cc2cccc(S(=O)(=O)N3CCN(c4ccc(C(F)(F)F)cc4)CC3)c2C1 (stereo not drawn) [Example 2, {4-[4-(4-trifluoromethyl-phenyl)-piperazine-1-sulfonyl]-indan-2-yl}-acetic acid]	> 100	< 5	5 to 100
C[C@@H]1CN(c2ccc(C(F)(F)F)cn2)CCN1S(=O)(=O)c1ccc2c(c1)C(C(=O)O)CC2 (stereo partly drawn) [Example 24, 6-[2-(R)-methyl-4-(5-trifluoromethyl-pyridin-2-yl)-piperazine-1-sulfonyl]-indan-1-carboxylic acid]	< 5	< 5	< 5
COc1cc2c(cc1S(=O)(=O)N1CCN(c3ccc(Cl)c(Cl)c3)CC1)CCC2CC(=O)O (stereo not drawn) [Example 30, {5-[4-(3,4-dichloro-phenyl)-piperazine-1-sulfonyl]-6-methoxy-indan-1-yl}-acetic acid]	5 to 100	5 to 100	5 to 100
C[C@@H]1CN(c2ccc(C(F)(F)F)cn2)C[C@H](C)N1S(=O)(=O)c1ccc2c(c1)C(C(=O)O)CC2 (stereo partly drawn) [Example 27, 6-[cis-2,6-dimethyl-4-(5-trifluoromethyl-pyridin-2-yl)-piperazine-1-sulfonyl]-indan-1-carboxylic acid]	5 to 100	< 5	5 to 100
CC1CN(S(=O)(=O)c2cccc3c2CC(C(=O)O)C3)C(C)CN1c1ccc(C(F)(F)F)cn1 (single isomer, unassigned) [Example 118, 4-[2S,5S-dimethyl-4-(5-trifluoromethyl-pyridin-2-yl)-piperazine-1-sulfonyl]-indan-2-carboxylic acid]	> 100	< 5	5 to 100
O=C(O)C1CCc2ccc(S(=O)(=O)N3CCN(c4ccc(OC(F)(F)F)cc4)CC3)cc21 (stereo not drawn) [Example 71, 6-[4-(4-trifluoromethoxy-phenyl)-piperazine-1-sulfonyl]-indan-1-carboxylic acid]	< 5	< 5	< 5
O=C(O)CN1CCc2ccc(S(=O)(=O)N3CCN(c4ccc(OC(F)(F)F)cc4)CC3)cc21 [Example 91, {6-[4-(4-trifluoromethoxy-phenyl)-piperazine-1-sulfonyl]-2,3-dihydro-indol-1-yl}-acetic acid]	5 to 100	< 5	< 5
O=C(O)C1Cc2ccc(S(=O)(=O)N3CCN(c4ccc(C(F)(F)F)cn4)CC3)cc2C1 (stereo not drawn) [Example 9]	5 to 100	< 5	5 to 100
CC1CN(S(=O)(=O)c2cccc3c2CC(C(=O)O)C3)C(C)CN1c1ccc(C(F)(F)F)cn1 (single isomer, unassigned) [Example 119, 4-[2S,5S-dimethyl-4-(5-trifluoromethyl-pyridin-2-yl)-piperazine-1-sulfonyl]-indan-2-carboxylic acid]	> 100	5 to 100	> 100
